# Data reported in patent US20060083754A1, “Pharmaceutical combinations comprising corticoids and immunosuppressants for treating corticoid- and/or calcineurin inhibitors-resistant diseases” (priority 2003, published 2006).
# Legend:
# [1] = system: human peripheral blood mononuclear cells (PBMC); assay: T-cell proliferation assay (BrdU ELISA), PBMC stimulated with anti-CD3 mAb + anti-CD28 mAb; type: cell-based; conditions: anti-CD3 mAb (0.1 μg/ml)+anti-CD28 mAb (1 μg/ml), BETA 300 nM
# [2] = system: human peripheral blood mononuclear cells (PBMC); assay: T-cell proliferation assay (BrdU ELISA), PBMC stimulated with SEB; type: cell-based; conditions: SEB (0.1 μg/ml), BETA 300 nM
# [3] = Example 1, 200000 cells/well, HC 10 μM, ASM 30 nM
# [4] = Example 2, 100000 cells/well, HC 10 μM, ASM 30 nM
# [5] = Example 3, 50000 cells/well, HC 10 μM, ASM 30 nM
# [6] = Example 6, 200000 cells/well, DEX 300 nM, ASM 30 nM
# [7] = Example 7, 100000 cells/well, DEX 300 nM, ASM 30 nM
# [8] = Example 8, 50000 cells/well, DEX 300 nM, ASM 30 nM
# [9] = Example 13, 200000 cells/well, HC 10 μM, FK 30 nM
# [10] = Example 14, 100000 cells/well, HC 10 μM, FK 30 nM
# [11] = Example 15, 200000 cells/well, DEX 300 nM, FK 30 nM
# [12] = Example 16, 100000 cells/well, DEX 300 nM, FK 30 nM
# [13] = Example 17, 50000 cells/well, DEX 300 nM, FK 30 nM
# [14] = Example 19, 200000 cells/well, HC 10 μM, CsA 300 nM, HC (10 μM)+CsA (30 nM), BETA (300 nM)+CsA (300 nM)
# [15] = Example 20, 100000 cells/well, HC 10 μM, CsA 300 nM, HC (10 μM)+CsA (30 nM), BETA (300 nM)+CsA (300 nM)
# [16] = Example 21, 50000 cells/well, HC 10 μM, CsA 300 nM, HC (10 μM)+CsA (30 nM), BETA (300 nM)+CsA (300 nM)
# [17] = Example 23, 200000 cells/well, DEX 300 nM, CsA 300 nM, DEX (300 nM)+CsA (30 nM), BETA (300 nM)+CsA (300 nM)
# [18] = Example 24, 100000 cells/well, DEX 300 nM, CsA 300 nM, DEX (300 nM)+CsA (30 nM), BETA (300 nM)+CsA (300 nM)
# [19] = Example 25, 50000 cells/well, DEX 300 nM, CsA 300 nM, DEX (300 nM)+CsA (30 nM), BETA (300 nM)+CsA (300 nM)
# [20] = Example 4, 200000 cells/well, HC 10 μM, ASM 30 nM
# [21] = Example 5, 100000 cells/well, HC 10 μM, ASM 30 nM
# [22] = Example 9, 200000 cells/well, DEX 300 nM, ASM 30 nM
# [23] = Example 10, 100000 cells/well, DEX 300 nM, ASM 30 nM
# [24] = Example 22, 200000 cells/well, HC 10 μM, CsA 300 nM, HC (10 μM)+CsA (30 nM), BETA (300 nM)+CsA (300 nM)
# [25] = Example 26, 200000 cells/well, DEX 300 nM, CsA 300 nM, DEX (300 nM)+CsA (30 nM), BETA (300 nM)+CsA (300 nM)
smiles,measurement,setting,value
"CCCCC(=O)O[C@]1(C(=O)CO)[C@@H](C)C[C@H]2[C@@H]3CCC4=CC(=O)C=C[C@]4(C)[C@@]3(F)[C@@H](O)C[C@@]21C [BETA, betamethasone 17-valerate]",Normalized OD (% STIM-C),[1]; [3],105.2 % STIM-C
same,OD,[1]; [3],0.808
same,Normalized OD (% STIM-C),[1]; [4],87.3 % STIM-C
same,OD,[1]; [4],0.796
same,Normalized OD (% STIM-C),[1]; [5],99.4 % STIM-C
same,OD,[1]; [5],0.873
same,Normalized OD (% STIM-C),[1]; [6],89.2 % STIM-C
same,OD,[1]; [6],0.703
same,Normalized OD (% STIM-C),[1]; [7],82.4 % STIM-C
same,OD,[1]; [7],0.692
same,Normalized OD (% STIM-C),[1]; [8],75.4 % STIM-C
same,OD,[1]; [8],0.794
same,Normalized OD (% STIM-C),[1]; [9],105.2 % STIM-C
same,OD,[1]; [9],0.808
same,Normalized OD (% STIM-C),[1]; [10],87.3 % STIM-C
same,OD,[1]; [10],0.796
same,Normalized OD (% STIM-C),[1]; [11],89.2 % STIM-C
same,OD,[1]; [11],0.703
same,Normalized OD (% STIM-C),[1]; [12],82.4 % STIM-C
same,OD,[1]; [12],0.692
same,Normalized OD (% STIM-C),[1]; [13],75.4 % STIM-C
same,OD,[1]; [13],0.794
same,Normalized OD (% STIM-C),[1]; [14],105.2 % STIM-C
same,OD,[1]; [14],0.808
same,Normalized OD (% STIM-C),[1]; [15],87.3 % STIM-C
same,OD,[1]; [15],0.796
same,Normalized OD (% STIM-C),[1]; [16],99.4 % STIM-C
same,OD,[1]; [16],0.873
same,Normalized OD (% STIM-C),[1]; [17],89.2 % STIM-C
same,OD,[1]; [17],0.703
same,Normalized OD (% STIM-C),[1]; [18],82.4 % STIM-C
same,OD,[1]; [18],0.692
same,Normalized OD (% STIM-C),[1]; [19],75.4 % STIM-C
same,OD,[1]; [19],0.794
same,Normalized OD (% STIM-C),[2]; [20],85.0 % STIM-C
same,OD,[2]; [20],0.900
same,Normalized OD (% STIM-C),[2]; [21],117.6 % STIM-C
same,OD,[2]; [21],1.001
same,Normalized OD (% STIM-C),[2]; [22],99.7 % STIM-C
same,OD,[2]; [22],0.902
same,Normalized OD (% STIM-C),[2]; [23],97.4 % STIM-C
same,OD,[2]; [23],0.955
same,Normalized OD (% STIM-C),[2]; [24],85.0 % STIM-C
same,OD,[2]; [24],0.900
same,Normalized OD (% STIM-C),[2]; [25],99.7 % STIM-C
same,OD,[2]; [25],0.902
